The assay addresses T1, DYRK4 (Homo sapiens, UniProt Q9NR20).
T1 construct: purchased Thermo Fisher Scientific (Life Technologies) SelectScreen
As to the kind of experiment: SelectScreen Z'LYTE. It is filed as biochemical. An outline of the steps: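 Percent values come from Thermo SelectScreen profiling of NU5455, combining activity and binding assays. CSF1R was run in Z'LYTE format at Km app ATP, and CAMK1 in Adapta format with ATP listed at 10.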

Molecules are shown by their SMILES.

T1 sequence (Q9NR20 whole entry): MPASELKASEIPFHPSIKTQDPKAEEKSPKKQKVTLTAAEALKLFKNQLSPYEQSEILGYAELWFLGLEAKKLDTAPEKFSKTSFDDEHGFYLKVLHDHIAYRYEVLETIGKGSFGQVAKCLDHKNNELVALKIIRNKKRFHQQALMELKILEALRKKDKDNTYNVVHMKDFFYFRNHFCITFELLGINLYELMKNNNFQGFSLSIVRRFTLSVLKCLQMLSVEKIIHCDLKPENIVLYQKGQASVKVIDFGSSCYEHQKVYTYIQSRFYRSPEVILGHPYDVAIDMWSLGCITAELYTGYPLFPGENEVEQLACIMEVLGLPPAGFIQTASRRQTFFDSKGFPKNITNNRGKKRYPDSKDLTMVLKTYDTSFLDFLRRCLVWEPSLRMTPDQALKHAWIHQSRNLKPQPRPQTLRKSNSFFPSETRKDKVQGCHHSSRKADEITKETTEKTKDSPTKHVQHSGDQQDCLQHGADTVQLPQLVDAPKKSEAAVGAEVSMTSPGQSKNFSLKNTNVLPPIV

Regarding `CN(C(=O)CN1CCOCC1)c1ccc2sc3c(-c4cccc5c(=O)cc(N6CC7CCC(C6)O7)oc45)cccc3c2c1` [NU5455], 1 µM produced 0.3% inhibition.

The values are drawn from publication PMC6934184, “Selective DNA-PKcs inhibition extends the therapeutic index of localized radiotherapy and chemotherapy” (The Journal of Clinical Investigation, 2019).
